Results taken from US11857519B2, “Compounds and methods for the targeted degradation of enhancer of zeste homolog 2 polypeptide” (Arvinas Operations, Inc., priority 2016, dated 2024).

Molecular target: T1, EZH2 (Homo sapiens, UniProt Q15910)
T1 construct: Protocol of the Cellular Assay of Target Protein Degradation (VCaP Cells, ELISA); endogenous in cells; host or cells: VCaP cells
Assay: Cellular assay of target protein degradation (VCaP cells, ELISA)
Type: cell-based
Settings: 4 hours, protein degradation range at indicated concentration (relative to DMSO control)
Method in brief: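 VCaP cells grown ≥3 days in RPMI with 5% CSS, then dosed with compounds in 0.1% DMSO for 4 h. Lysates analysed by sandwich ELISA for EZH2 with TMB readout at 450 nm, 562 nm used for background subtraction.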

T1 sequence (Q15910 whole entry): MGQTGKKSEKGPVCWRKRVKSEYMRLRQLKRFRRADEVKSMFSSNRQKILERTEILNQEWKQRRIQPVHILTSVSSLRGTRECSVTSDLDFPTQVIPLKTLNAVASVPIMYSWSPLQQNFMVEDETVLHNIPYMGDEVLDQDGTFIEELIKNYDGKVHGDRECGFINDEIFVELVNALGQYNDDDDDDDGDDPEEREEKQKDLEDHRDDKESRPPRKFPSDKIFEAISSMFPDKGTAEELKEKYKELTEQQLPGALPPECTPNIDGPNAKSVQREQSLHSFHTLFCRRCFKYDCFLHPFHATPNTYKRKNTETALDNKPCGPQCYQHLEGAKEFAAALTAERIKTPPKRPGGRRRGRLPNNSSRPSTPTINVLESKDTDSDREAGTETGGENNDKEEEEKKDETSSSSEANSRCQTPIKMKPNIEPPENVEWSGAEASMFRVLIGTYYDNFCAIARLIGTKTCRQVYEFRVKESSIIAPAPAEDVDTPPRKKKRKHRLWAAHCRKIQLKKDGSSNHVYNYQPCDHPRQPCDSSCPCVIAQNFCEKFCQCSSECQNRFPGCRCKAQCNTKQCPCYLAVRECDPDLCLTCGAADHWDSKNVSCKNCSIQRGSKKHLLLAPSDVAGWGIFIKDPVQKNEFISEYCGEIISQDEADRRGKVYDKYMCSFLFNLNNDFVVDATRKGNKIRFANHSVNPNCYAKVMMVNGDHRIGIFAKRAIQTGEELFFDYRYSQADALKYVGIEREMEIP
T1 sequence (O75530 whole entry partner): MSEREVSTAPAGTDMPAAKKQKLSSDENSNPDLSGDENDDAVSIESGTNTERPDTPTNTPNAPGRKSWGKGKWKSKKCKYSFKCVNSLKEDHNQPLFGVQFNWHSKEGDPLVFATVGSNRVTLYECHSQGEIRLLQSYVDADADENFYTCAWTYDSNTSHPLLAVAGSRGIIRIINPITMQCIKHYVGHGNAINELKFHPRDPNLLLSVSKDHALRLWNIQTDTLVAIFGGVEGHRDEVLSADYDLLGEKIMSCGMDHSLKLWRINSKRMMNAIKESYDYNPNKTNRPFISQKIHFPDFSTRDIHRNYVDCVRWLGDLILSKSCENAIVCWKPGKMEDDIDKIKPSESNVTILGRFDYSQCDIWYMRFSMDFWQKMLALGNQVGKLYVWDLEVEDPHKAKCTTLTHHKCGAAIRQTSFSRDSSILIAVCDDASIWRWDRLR
T1 sequence (Q15022 whole entry partner): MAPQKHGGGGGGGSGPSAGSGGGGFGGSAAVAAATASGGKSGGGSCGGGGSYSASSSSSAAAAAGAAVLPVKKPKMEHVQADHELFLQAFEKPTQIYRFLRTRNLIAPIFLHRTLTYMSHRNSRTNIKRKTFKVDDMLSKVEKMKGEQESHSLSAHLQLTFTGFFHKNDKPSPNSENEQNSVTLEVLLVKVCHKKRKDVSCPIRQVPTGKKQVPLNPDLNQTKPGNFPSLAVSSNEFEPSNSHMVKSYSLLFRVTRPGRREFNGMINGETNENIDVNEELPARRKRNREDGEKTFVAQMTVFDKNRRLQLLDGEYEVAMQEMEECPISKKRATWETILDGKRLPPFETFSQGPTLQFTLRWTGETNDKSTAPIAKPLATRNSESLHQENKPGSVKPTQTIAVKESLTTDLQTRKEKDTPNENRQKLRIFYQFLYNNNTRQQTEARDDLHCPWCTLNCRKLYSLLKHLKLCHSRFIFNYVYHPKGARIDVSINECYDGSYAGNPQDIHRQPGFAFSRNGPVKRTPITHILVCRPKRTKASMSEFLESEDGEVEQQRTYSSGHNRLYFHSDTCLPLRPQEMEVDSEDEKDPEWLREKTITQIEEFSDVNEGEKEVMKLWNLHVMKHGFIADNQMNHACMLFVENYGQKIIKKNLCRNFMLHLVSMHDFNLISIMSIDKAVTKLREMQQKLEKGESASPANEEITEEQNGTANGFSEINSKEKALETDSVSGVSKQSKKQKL

Row | SMILES | percent target protein degradation class
1 | CCN(c1cc(-c2ccc(CCCOCCOc3cc(C(C(=O)N4C[C@H](O)C[C@H]4C(=O)N[C@@H](C)c4ccc(-c5scnc5C)cc4)C(C)C)on3)cc2)cc(C(=O)NCc2c(C)cc(C)[nH]c2=O)c1C)C1CCOCC1 (stereo partly drawn) [Compound 111, (2S,4R)-1-(2-(3-(2-(3-(3′-(((4,6-dimethyl-2-oxo-1,2-dihydropyridin-3-yl)methyl)carbamoyl)-5′-(ethyl(tetrahydro-2H-pyran-4-yl)amino)-4′-methyl-[1,1′-biphenyl]-4-yl)propoxy)ethoxy)isoxazol-5-yl)-3-methylbutanoyl)-4-hydroxy-N-((S)-1-(4-(4-methylthiazol-5-yl)phenyl)ethyl)pyrrolidine-2-carboxamide] | A (A = degradation more than 60%)
2 | CCN(c1cc(-c2ccc(OCCCCCOCC(=O)N[C@H](C(=O)N3C[C@H](O)C[C@H]3C(=O)NCc3ccc(-c4scnc4C)cc3)C(C)(C)C)cc2)cc(C(=O)NCc2c(C)cc(C)[nH]c2=O)c1C)C1CCOCC1 [Compound 46, (2S,4R)-1-[(2S)-2-[2-({5-[4-(3-{[(4,6-dimethyl-2-oxo-1,2-dihydropyridin-3-yl)methyl]carbamoyl}-5-[ethyl(oxan-4-yl)amino]-4-methylphenyl)phenoxy]pentyl}oxy)acetamido]-3,3-dimethylbutanoyl]-4-hydroxy-N-{[4-(4-methyl-1,3-thiazol-5-yl)phenyl]methyl}pyrrolidine-2-carboxamide] | A (A = degradation more than 60%)
3 | CCN(c1cc(-c2ccc(CN3CCN(CCOCCOCC(=O)N[C@H](C(=O)N4C[C@H](O)C[C@H]4C(=O)N[C@@H](C)c4ccc(-c5scnc5C)cc4)C(C)(C)C)CC3)cc2)cc(C(=O)NCc2c(C)cc(C)[nH]c2=O)c1C)C1CCOCC1 [Compound 114, (2S,4R)-1-((S)-2-(2-(2-(2-(4-((3′-(((4,6-dimethyl-2-oxo-1,2-dihydropyridin-3-yl)methyl)carbamoyl)-5′-(ethyl(tetrahydro-2H-pyran-4-yl)amino)-4′-methyl-[1,1′-biphenyl]-4-yl)methyl)piperazin-1-yl)ethoxy)ethoxy)acetamido)-3,3-dimethylbutanoyl)-4-hydroxy-N-((S)-1-(4-(4-methylthiazol-5-yl)phenyl)ethyl)pyrrolidine-2-carboxamide] | A (A = degradation more than 60%)
4 | CCN(c1cc(-c2ccc(OCCOCCOCCOCCOCCOCCNc3cccc4c3C(=O)N(C3CCC(=O)NC3=O)C4=O)cc2)cc(C(=O)NCc2c(C)cc(C)[nH]c2=O)c1C)C1CCOCC1 (centres unmarked) [Compound 19, N-[(4,6-dimethyl-2-oxo-1,2-dihydropyridin-3-yl)methyl]-5-[4-({1-[2-(2,6-dioxopiperidin-3-yl)-1,3-dioxo-2,3-dihydro-1H-isoindol-4-yl]-4,7,10,13,16-pentaoxa-1-azaoctadecan-18-yl}oxy)phenyl]-3-[ethyl(oxan-4-yl)amino]-2-methylbenzamide] | B (B = degradation between 30% and 60%)
5 | CCN(c1cc(-c2ccc(CCCOCCCCC(=O)N[C@H](C(=O)N3C[C@H](O)C[C@H]3C(=O)N[C@@H](C)c3ccc(-c4scnc4C)cc3)C(C)(C)C)cc2)cc(C(=O)NCc2c(C)cc(C)[nH]c2=O)c1C)C1CCOCC1 [Compound 88, (2S,4R)-1-((S)-2-(5-(3-(3′-(((4,6-dimethyl-2-oxo-1,2-dibydropyridin-3-yl)methyl)carbamoyl)-5′-(ethyl(tetrahydro-2H-pyran-4-yl)amino)-41-methyl-[1,1′-biphenyl]-4-yl)propoxy)pentanamido)-3,3-dimethylbutanoyl)-4-hydroxy-N-((S)-1-(4-(4-methylthiazol-5-yl)phenyl)ethyl)pyrrolidine-2-carboxamide] | A (A = degradation more than 60%)
6 | CCN(c1cc(-c2ccc(OCCCOc3cc(-c4scnc4C)ccc3CNC(=O)[C@@H]3C[C@@H](O)CN3C(=O)[C@H](C(C)C)N3Cc4ccccc4C3=O)cc2)cc(C(=O)NCc2c(C)cc(C)[nH]c2=O)c1C)C1CCOCC1 [Compound 90, (2S,4R)-N-(2-(3-((3′-(((4,6-dimethyl-2-oxo-1,2-dihydropyridin-3-yl)methyl)carbamoyl)-5′-(ethyl(tetrahydro-2H-pyran-4-yl)amino)-4′-methyl-[1,1′-biphenyl]-4-yl)oxy)propoxy)-4-(4-methylthiazol-5-yl)benzyl)-4-hydroxy-1-((S)-3-methyl-2-(1-oxoisoindolin-2-yl)butanoyl)pyrrolidine-2-carboxamide] | B (B = degradation between 30% and 60%)
7 | Cc1cc(C)c(CNC(=O)c2cc(-c3ccc(CN4CCN(CCOCCCCCOCCCCCOCC(=O)N[C@H](C(=O)N5C[C@H](O)C[C@H]5C(=O)NCc5ccc(-c6scnc6C)cc5)C(C)(C)C)CC4)cc3)cc3c2ccn3C2CCCC2)c(=O)[nH]1 [Compound 6, 1-cyclopentyl-N-[(4,6-dimethyl-2-oxo-1,2-dihydropyridin-3-yl)methyl]-6-[4-[(4-{2-[(5-{[5-({[(2S)-1-[(2S,4R)-4-hydroxy-2-({[4-(4-methyl-1,3-thiazol-5-yl)phenyl]methyl}carbamoyl)pyrrolidin-1-yl]-3,3-dimethyl-1-oxobutan-2-yl]carbamoyl}methoxy)pentyl]oxy}pentyl)oxy]ethyl}piperazin-1-yl)methyl]phenyl}-1H-indole-4-carboxamide] | B (B = degradation between 30% and 60%)
8 | CCN(c1cc(-c2ccc(OCCOCC(=O)N[C@H](C(=O)N3C[C@H](O)C[C@H]3C(=O)NCc3ccc(-c4scnc4C)cc3)C(C)(C)C)cc2)cc(C(=O)NCc2c(C)cc(C)[nH]c2=O)c1C)C1CCOCC1 [Compound 32, (2S,4R)-1-[(2S)-2-(2-{2-[4-(3-{[(4,6-dimethyl-2-oxo-1,2-dihydropyridin-3-yl)methyl]carbamoyl}-5-[ethyl(oxan-4-yl)amino]-4-methylphenyl)phenoxy]ethoxy}acetamido)-3,3-dimethylbutanoyl]-4-hydroxy-N-{[4-(4-methyl-1,3-thiazol-5-yl)phenyl]methyl}pyrrolidine-2-carboxamide] | B (B = degradation between 30% and 60%)
